Measured values: patent US20210378992A1, “METHODS FOR TREATING A SUBTYPE OF SMALL CELL LUNG CANCER” (Auransa Inc., priority 2018, published 2021)

Experiments:
[1] = system: human small cell lung cancer sample LU5243; experiment: In vivo patient derived xenograft (PDX) study, LU5243 (predicted responder); design: species or system mice; details: pentamidine 10 or 20 mg/kg IP QD, FIGS. 1 and 2
Protocol: 50 mice were enrolled in the study. 25 mice were randomly allocated to each of two human small cell lung cancer tumor models: LU5181 and LU5243. […] However, expression profile of human LU5243, another SCLC tumor sample, successfully matched with the predicted gene expression signature for pentamidine (e.g., as described above, and in Table 1 and Table 2).
Randomization of the 50 mice was performed using the multi-task method in the Study Log software on day 0. Average tumor volume (mm^3) for each group ±SD at randomization was as follows. […]
Tumor cryovials containing tumor cells were thawed and prepared for inoculation into mice. Cells were washed in PBS, counted, and re-suspended in cold PBS at concentrations of 100,000 viable cells/100 μL. […]
Mice were monitored weekly for palpable tumors, or any changes in appearance or behavior. Once tumors were palpable, they were measured twice a week using calipers. Tumor volume was calculated using the following equation (longest diameter×shortest diameter^2)/2.
Stock solution of pentamidine was made in water at 10 mg/mL. Amount needed for dosing for one week was calculated and was diluted with PBS. […]
Body weight was measured twice a week. […]
For all animals, tumors were collected, weighed, weight recorded and snap frozen. […]

[2] = system: biomarker genes of Tables 1, 2 and 3 (INSM1, GADD45G, C1QL1, STAT6, SMAD3, RNF43 and others); experiment: Biomarker gene expression after dosing of pentamidine in human SCLC PDX study; assay type: in vivo, mice; details: SCLC subtype sensitive to pentamidine
Text: A computational model was constructed to identify patient subpopulations of small cell lung cancer, leveraging data from 5 different datasets of treatment-naïve human small cell lung cancer biopsies (Gene Expression Omnibus identifiers GSE30219, GSE43346, GSE50451; George et al. (2015) Nature 524:47-53; and Rudin et al. (2012) Nat. Genet. 44:1111-1116). Pentamidine was a strong match to one SCLC subpopulation identified by the model. Potential biomarker genes for each subpopulation were discovered using another modeling approach. […] Among the 41 genes (see Tables 1, 2 and 3), the following six genes were selected for further study: INSM1, GADD45G, C1QL1, STAT6, SMAD3 and RNF43.
For all animals, tumors were collected, weighed, weight recorded and snap frozen. Blood for plasma isolation was taken from each animal at 4 hours after dosing. All samples collected from this study were stored in −80° C. For Group01-03, any time that an animal has to be taken down prior to normal end of study termination, the animal was dosed and sampled 4 hours after the dose was given. For group04, tumors were collected 4 hours after the third dose was given. Tumors were weighed and snap-frozen.

N=C(N)c1ccc(OCCCCCOc2ccc(C(=N)N)cc2)cc1 [Pentamidine, 1,5-Bis(4-amidinophenoxy)pentane]
efficacy in PDX model (tumor volume) [1]: significant efficacy | expression of genes in Table 1 (INSM1, GADD45G, C1QL1) upon treatment with pentamidine ([2]; high expression biomarkers): repressed nearly to normal levels | expression of genes in Table 2 (STAT6, SMAD3, RNF43) upon treatment with pentamidine ([2]; low expression biomarkers): increased nearly to normal levels
